Where two headings read alike, the source gives them in different places.
Columns and labels:
HCT116 spheroids = test: Spheroid + radiation colony forming cell survival assay (SF), HCT116; type: cell-based; settings: 8 Gy
Method: Multicellular tumour spheroids determination of compound inhibition of pDNA-PK induction following radiation. Tumour spheroids were grown to approximately 0.5 mm in diameter and irradiated with 20 Gy in combination with inhibitor test compounds to determine their potency. Inhibitor concentration for 50% reduction in pDNA-PK induction (IC50) was determined via immunohistochemical staining in spheroid cryosections taken 2 hours following radiation. For cell survival endpoint 8 Gy radiation was used and 3 hours following radiation spheroids were dissociated, counted and plated for colony forming endpoint.
Spheroid+radiation colony forming cell survival assay (SF). Radiation 8 Gy. Drug: serial dilution 5 μM down to 10 nM (12 wells×2 repeat). Spheroids: 5-10 spheroids per well ([…]). HCT116. 5% O2 and 5% CO2. 96 well pate format for assay. Protocol: pre incubate 1 hour with drug, irradiate 8 Gy, post incubate 3 hrs with drug, dissociate spheroids and count cells and plate for colony forming assay. Endpoint: wait 4-7 days and count colonies. Analysis: determine EC50 concentration that increase cell kill by 50% over radiation alone.
Multicellular tumour spheroids were used to determine potency of test compounds in a 3D tissue environment using inhibition of pDNA-PK induction following radiation or cell survival as the endpoint. For the pDNA-PK endpoint HCT116 or FaDU tumour spheroids were grown to approximately 0.5 mm in diameter and irradiated with 20 Gy in combination with inhibitor test compounds to determine their potency. Experiments were carried out in 96 well plates containing 0.7 mls of MEM media containing 10% FBS and 10 mM glucose under 20% O2 & 5% CO2 at 37° C. Following dilution of compounds 1:1000 from DMSO stocks, compounds were serially diluted from 10 μM down to 3.5 nM and 5-10 spheroids added. 96 well plates were constantly stirred to avoid spheroids settling during the course of the experiment. The inhibitor concentration for 50% reduction in pDNA-PK induction (EC50) was determined via immunohistochemical staining in spheroid cryosections taken 2 hours following radiation using anti-pDNA-PK (ser 2056) and fixed immediately in formalin following sectioning. For cell survival endpoint 8 Gy radiation was used and, 3 hours following radiation, spheroids were dissociated, counted and plated for colony forming endpoint. Data presented in the table compound potency as EC50 [μM].

[1] = Microsomal stability assay, mouse liver microsomes; settings: for microsomal CLint at 0.1 uM: male, CD-1, mouse, liver microsomes, pH 7.4, Microsomal Stability Mouse Clint, 0.1 mg/mL microsomes, 0.1 uM compound
Method: Mouse liver microsomes were obtained from a pool of 250 or more male CD-1 mice. […] Final microsomal concentration was 0.1 mg/mL and test compound concentration was 0.1 uM with a maximum of 0.01% DMSO. The test compound was pre-incubated with pooled liver microsomes in phosphate buffer (pH 7.4) for 5 min in a 37° C. shaking water bath. The reaction was initiated by adding NADPH-generating system and incubated for 0, 15, 30, 45, and 60 min. The reaction was stopped by transferring the incubation mixture to acetonitrile/methanol. Samples were then mixed and centrifuged. Supernatants were used for HPLC-MS/MS analysis. The HPLC system consisted of a binary LC pump with autosampler, a C-18 column, and a gradient. Peak areas corresponding to the test compound were recorded. The compound remaining was calculated by comparing the peak area at each time point to time zero. The half-life was calculated from the slope of the initial linear range of the logarithmic curve of compound remaining (%) vs. time, assuming first order kinetics. In addition, the intrinsic clearance (Clint) was calculated from the half-life.

[2] = biological target: T1, pDNA-PK ser2056 induction in FaDU spheroids (Homo sapiens, UniProt P78527); test: Multicellular tumour spheroid + radiation, pDNA-PK inhibition, FaDU; type: cell-based; settings: 20 Gy
T1 construct: host or cells: FaDu
Summary of the method: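 HCT116 or FaDU spheroids (~0.5 mm) in MEM/10% FBS/10 mM glucose, 20% O2, 5% CO2, 37 °C, stirred, irradiated with 20 Gy alongside compound serially diluted from 10 μM to 3.5 nM. Cryosections taken 2 h post-radiation, immunostained for pDNA-PK ser2056; EC50 is concentration halving pDNA-PK induction. Survival endpoint: 8 Gy, dissociation at 3 h, colony formation.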

[3] = biological target: T2, pDNA-PK ser2056 induction in HCT116 spheroids (Homo sapiens, UniProt P78527); test: Multicellular tumour spheroid + radiation, pDNA-PK inhibition, HCT116; type: cell-based; settings: 20 Gy
T2 construct: endogenous in cells; host or cells: HCT116 multicellular tumour spheroids
Summary of the method: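 EC50 (μM) is concentration halving radiation-induced pDNA-PK ser2056, scored by fluorescent immunostaining of cryosections 2 h after 20 Gy. HCT116 tumour spheroids (~0.5 mm, stirred, 20% O2/5% CO2, 37 °C) exposed to serial dilutions from 10 or 5 μM to 3.5 nM starting 1 h before irradiation.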

[4] = Hepatocyte stability assay, human hepatocytes; type: in vitro ADME; settings: for hepatocyte CLint at 1 uM: both sexes, human, cryopreserved hepatocytes, pH 7.3, 0.7 million cells per mL, 1 uM compound
Summary of the method: (§1)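 Pooled cryopreserved hepatocytes (male CD-1 mouse, or mixed-gender human donors; ≥10 each) at 0.7 million viable cells/mL in Krebs-Henseleit buffer pH 7.3, with 1 uM compound (≤0.01% DMSO). Incubated up to 2 h at 37 °C/5% CO2, quenched with acetonitrile; parent compound followed by HPLC-MS/MS peak area.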

[5] = Hepatocyte stability assay, mouse hepatocytes; type: in vitro ADME; settings: for hepatocyte CLint at 1 uM: male, CD-1, mouse, cryopreserved hepatocytes, pH 7.3, 0.7 million cells per mL, 1 uM compound
Summary of the method: as §1

[6] = Example 8, spheroid, read-out: Cell line: HCT116 Colony forming endpoint Surviving Fraction EC50
[7] = Example 9 Study 2, read-out: Spheroid Cell line: HCT116 Colony forming endpoint Surviving Fraction EC50
[8] = Example 8, spheroid, read-out: Cell line: FaDU Immunohistochemical endpoint pDNA-PK inhibition EC50
[9] = Example 9 Study 2, 20% O2, read-out: Spheroid Cell line: FaDU Immunohistochemical endpoint pDNA-PK inhibition EC50
[10] = Example 7, spheroid, cell line HCT115 [sic], 20% O2, read-out: EC50 (pDNA-PK inhibition, immunohistochemical endpoint)
[11] = Example 8, spheroid, read-out: Cell line: HCT116 Immunohistochemical endpoint pDNA-PK inhibition EC50
[12] = Example 9 Study 2, 20% O2, read-out: Spheroid Cell line: HCT116 Immunohistochemical endpoint pDNA-PK inhibition EC50

| SMILES | EC50 (HCT116 spheroids; [6]) [nM] | EC50 (HCT116 spheroids; [7]) [nM] | Microsomal Stability (mouse) % rem. 60 min [1] | microsomal CLint at 0.1 uM [1] [µL/min/mg] | EC50 [2, 8] [nM] | EC50 [2, 9] [nM] | EC50 [3, 10] [nM] | EC50 [3, 11] [nM] | EC50 [3, 12] [nM] | Hepatocyte Stability (human) % rem. 120 min [4] | hepatocyte CLint at 1 uM [4] [µL/min/1e6 cells] | Hepatocyte Stability (mouse) % rem. 120 min [5] | hepatocyte CLint at 1 uM [5] [µL/min/1e6 cells] |
| --- | --- | --- | --- | --- | --- | --- | --- | --- | --- | --- | --- | --- | --- |
| Fc1cn([C@H]2CC[C@@H](Oc3nc(N4CCOCC4)cc4ncccc34)CC2)cn1 [Compound 17a, 4-(5-(((1s,4s)-4-(4-fluoro-1H-imidazol-1-yl)cyclohexyl)oxy)-1,6-naphthyridin-7-yl)morpholine] | 10 to 500 | 10 to 500 | E (% remaining = 0-25%) | > 116 | 500 to 1000 | 500 to 1000 | 1000 to 10000 | 1000 to 10000 | 1000 to 10000 |  |  |  |  |
| FC(F)(F)c1cncn1[C@H]1CC[C@@H](Oc2nc(N3CCOCC3)cc3ncccc23)CC1 [Compound 17j, 4-(5-(((1s,4s)-4-(5-(trifluoromethyl)-1H-imidazol-1-yl)cyclohexyl)oxy)-1,6-naphthyridin-7-yl)morpholine] | 500 to 1000 | 500 to 1000 | E (% remaining = 0-25%) | > 116 | 500 to 1000 | 500 to 1000 | 500 to 1000 | 500 to 1000 | 500 to 1000 |  |  |  |  |
| Oc1cnc2cc(N3CCOCC3)nc(O[C@H]3CC[C@@H](Nc4ncccn4)CC3)c2c1 [Compound 19a, 7-Morpholino-5-(((1s,4s)-4-(pyrimidin-2-ylamino)cyclohexyl)oxy)-1,6-naphthyridin-3-ol] | 500 to 1000 | 500 to 1000 | F (% remaining = 25-50%) | > 116 | 500 to 1000 | 500 to 1000 | 500 to 1000 | 500 to 1000 | 500 to 1000 |  |  |  |  |
| c1cnc(N[C@H]2CC[C@@H](Oc3nc(N4CCOCC4)cc4ncccc34)CC2)nc1 [Compound 20a, N-((1s,4s)-4-((7-Morpholino-1,6-naphthyridin-5-yl)oxy)cyclohexyl)pyrimidin-2-amine] | 10 to 500 | 10 to 500 | E (% remaining = 0-25%) | > 116 | 500 to 1000 | 500 to 1000 | 500 to 1000 | 500 to 1000 | 500 to 1000 | F (% remaining = 25-50%) | > 8.2 | F (% remaining = 25-50%) | > 8.2 |
| Cc1cnc(N[C@H]2CC[C@@H](Oc3nc(N4CCOCC4)cc4ncccc34)CC2)nc1 [Compound 32, 5-Methyl-N-((1s,4s)-4-((7-morpholino-1,6-naphthyridin-5-yl)oxy)cyclohexyl)pyrimidin-2-amine] | 10 to 500 | 10 to 500 | E (% remaining = 0-25%) | > 116 | 500 to 1000 | 500 to 1000 | 1000 to 10000 | 1000 to 10000 | 1000 to 10000 |  |  |  |  |
| FC(F)(F)c1cnc(N[C@H]2CC[C@@H](Oc3nc(N4CCOCC4)cc4ncccc34)CC2)nc1 [Compound 34, N-((1s,4s)-4-((7-Morpholino-1,6-naphthyridin-5-yl)oxy)cyclohexyl)-5-(trifluoromethyl)pyrimidin-2-amine] | 1000 to 10000 | 1000 to 10000 | E (% remaining = 0-25%) | > 116 | 1000 to 10000 | 1000 to 10000 | 1000 to 10000 | 1000 to 10000 | 1000 to 10000 |  |  |  |  |
| O=C(N[C@H]1CC[C@@H](Oc2nc(N3CCOCC3)cc3ncccc23)CC1)c1cncnc1 [Compound 122, N-((1s,4s)-4-((7-Morpholino-1,6-naphthyridin-5-yl)oxy)cyclohexyl)pyrimidine-5-carboxamide] | 500 to 1000 | 500 to 1000 | G (% remaining = 50-75%) | > 116 | 500 to 1000 | 500 to 1000 | 1000 to 10000 | 1000 to 10000 | 1000 to 10000 |  |  | E (% remaining = 0-25%) | > 8.2 |
| O=C(N[C@H]1CC[C@@H](Oc2nc(N3CCOCC3)cc3ncccc23)CC1)c1ncccn1 [Compound 123, N-((1s,4s)-4-((7-Morpholino-1,6-naphthyridin-5-yl)oxy)cyclohexyl)pyrimidine-2-carboxamide] | 10 to 500 | 10 to 500 | G (% remaining = 50-75%) | < 116 | 10 to 500 | 10 to 500 | 500 to 1000 | 500 to 1000 | 500 to 1000 | H (% remaining = 75-100%) | < 8.2 | G (% remaining = 50-75%) | < 8.2 |
| O=C(N[C@H]1CC[C@@H](Oc2nc(N3CCOCC3)cc3ncccc23)CC1)c1ccco1 [Compound 132, N-((1s,4s)-4-((7-Morpholino-1,6-naphthyridin-5-yl)oxy)cyclohexyl)furan-2-carboxamide] | 10 to 500 | 10 to 500 | E (% remaining = 0-25%) | > 116 | 10 to 500 | 10 to 500 | 10 to 500 | 10 to 500 | 10 to 500 |  |  |  |  |

From patent US20240246960A1 (adMare Therapeutics Society, priority 2021, published 2024)
